experiment: HILIC, Waters ACQUITY UPLC BEH Amide, 100 × 2.1 mm, 1.7 µm; A: water + 0.125% formic acid + 10 mM ammonium formate; B: 5% water + 95% acetonitrile + 0.125% formic acid + 10 mM ammonium formate; gradient (min/%B) 0/100 2/100 7.7/70 9.5/40 10.25/30 12.75/100 17/100; conditions: stereoisomer not certain

SMILES	LC retention time [min]
c1ccncc1 [Pyridine]	6.63
CC(C)(CO)C(O)C(=O)NCCCO (stereo unspecified) [Panthenol]	1.9
CSc1nc2cc(Oc3cccc(Cl)c3Cl)c(Cl)cc2[nH]1 [Triclabendazole]	1.01
CC12CCC3C(CCC4=CC(=O)CCC43C)C1CCC2=O (stereo unspecified) [Androstenedione]	1.09
C=CCC1C=C(C)CC(C)CC(OC)C2OC(O)(C(=O)C(=O)N3CCCCC3C(=O)OC(C(C)=CC3CCC(O)C(OC)C3)C(C)C(O)CC1=O)C(C)CC2OC (stereo unspecified) [Tacrolimus]	1.07
CN1C(=O)CN=C(c2ccccc2F)c2cc([N+](=O)[O-])ccc21 [Flunitrazepam]	1.05
CCCCCCCCCCCCCCCC(=O)OC(CC(=O)[O-])C[N+](C)(C)C (stereo unspecified) [Palmitoylcarnitine cation]	3.23
O=c1[nH]cnc2c1ncn2C1OC(CO)C(O)C1O (stereo unspecified) [Inosine]	6.19
CC(OC1C(N)C(O)OC(CO)C1O)C(=O)O (stereo unspecified) [Muramic acid]	8.28
CCC(C)n1ncn(-c2ccc(N3CCN(c4ccc(OCC5COC(Cn6cncn6)(c6ccc(Cl)cc6Cl)O5)cc4)CC3)cc2)c1=O (stereo unspecified) [Itraconzaole]	0.97
Cc1nnc2n1-c1ccc(Cl)cc1C(c1ccccc1Cl)=NC2 [Triazolam]	1.3
CC12CCC(=O)C=C1CCC1C2CCC2(C)C1CCC2(C)O (stereo unspecified) [Methyltestosterone]	1.04
NC(CCC(=O)NC(CSSCC(N)C(=O)O)C(=O)NCC(=O)O)C(=O)O [L-Cysteine-glutathione disulfide]	10.2
CC(CCC(=O)O)C1CCC2C3C(=O)CC4CC(=O)CCC4(C)C3CC(=O)C12C (stereo unspecified) [Dehydrocholic acid]	1.16
Cn1c(=O)c2c(ncn2C)n(C)c1=O [Caffeine]	1.21
COc1cn(C2OC(CO)C(O)C2O)c(=O)[nH]c1=O (stereo unspecified) [5-Methoxyuridine]	4.72
CN1CCC(=C2c3ccccc3CC(=O)c3sccc32)CC1 [Ketotifen]	2.71
CN1C(=O)CN=C(c2ccccc2)c2cc(Cl)ccc21 [Diazepam]	1.1
COC1C=COC2(C)Oc3c(C)c(O)c4c(O)c(c(C=NN5CCN(C6CCCC6)CC5)c(O)c4c3C2=O)NC(=O)C(C)=CC=CC(C)C(O)C(C)C(O)C(C)C(OC(C)=O)C1C (stereo unspecified) [Rifapentine]	1.81
CC(C)CC(=O)OC(CC(=O)[O-])C[N+](C)(C)C [Isovaleryl-L-carnitine]	5.36
Cc1cn(C2OC(CO)C(O)C2O)c(=O)nc1N (stereo unspecified) [5-Methylcytidine]	6.39
CC(C)CN [Isobutylamine]	5.04
CCCCCC=CCC=CCC=CCC=CCCCC(=O)NCCc1ccc(O)c(O)c1 [Arachidonyl dopamine]	1.14
CC(C)=CCCC(C)O (stereo unspecified) [6-Methyl-5-hepten-2-ol]	7.3
CCC(C(N)=O)N1CCCC1=O (stereo unspecified) [Levetiracetam]	1.45

SMILES	LC retention time [min]
O=C(O)CCP(=O)(O)O [3-Phosphonopropionic acid]	8.59
Cn1c(=O)c2c([nH]c(=O)n2C)n(C)c1=O [1,3,7-Trimethyluric acid]	1.83
CC(C)=CCN1CCC2(C)c3cc(O)ccc3CC1C2C (stereo unspecified) [Pentazocine]	2.65
CCC(=O)C(CC(C)N(C)C)(c1ccccc1)c1ccccc1 (stereo unspecified) [Methadone]	2
COc1c(N2CC3CCCNC3C2)c(F)cc2c(=O)c(C(=O)O)cn(C3CC3)c12 (stereo unspecified) [Moxifloxacin]	4.69
CN1C2CCC1C(C(=O)O)C(OC(=O)c1ccccc1)C2 (stereo unspecified) [Benzoylecgonine]	3.63
NC(N)=NCCCC(N)C(=O)NC(CO)C(=O)O (stereo unspecified) [Arg-Ser]	9.9
O=[N+]([O-])c1cc[n+]([O-])c2ccccc12 [4-Nitroquinoline-N-oxide]	1.14
CC1=C2C3OC(=O)C(C)C3CCC2(C)C=CC1=O (stereo not drawn) [alpha-Santonin]	1.07
CCCCCC(O)CC (stereo unspecified) [3-Octanol]	8.47
CS(=O)(=O)Nc1ccc(Cc2noc(-c3ccc4[nH]cc(CCN)c4c3)n2)cc1 [L-694,247]	5.25
Nc1nc2ccc(Cl)cc2c2nc(-c3ccco3)nn12	1.07
CC(C=CC1=C(C)CCCC1(C)C)=CC=CC(C)=CC(=O)O [Retinoic acid]	1.11
Nc1nc(Cl)nc2c1ncn2C1CC(O)C(CO)O1 (stereo unspecified) [Cladribine]	1.95
O=CC=Cc1ccccc1 [Cinnamaldehyde]	9.18
N[C@H]1[C@@H](OP(=O)(O)O)O[C@H](CO)[C@H](O)[C@@H]1O [alpha-Galactosamine-1-phosphate]	7.06
CCCCCCCCC=CCCCCCCCCCCCC(N)=O [Erucamide]	1.06
O=C1CN=C(c2ccccc2)c2cc([N+](=O)[O-])ccc2N1 [Nitrazepam]	1.2
CC(O)C(C)O (stereo unspecified) [2,3-Butanediol]	3.34
OCC1OC(OCC2OC(O)C(O)C(O)C2O)C(O)C(O)C1O (stereo unspecified) [Isomaltose]	7.19
Nc1nc2c(ncn2C2OC3COP(=O)(O)OC3C2O)c(=O)[nH]1 (stereo unspecified) [Guanosine-3',5'-cyclic monophosphate]	8.39
COC(=O)C1C(O)CC2CCC1N2C (stereo unspecified) [Ecgonine methylester]	4.18
CCCCCCCCCCCC(=O)OC(CC(=O)[O-])C[N+](C)(C)C [Lauroyl-L-carnitine]	3.63
NCC1CCC(C(=O)O)CC1 (stereo unspecified) [4-Aminomethylcyclohexanecarboxylic acid]	6.6

The remaining lines, values ahead:

LC retention time [min]	SMILES
3.5	Cc1nc2ccccn2c(=O)c1CCN1CCC(C(=O)c2ccc(F)cc2)CC1 [Pirenperone]
6.22	CC(O)C(C)C(=O)O (stereo unspecified) [Methyl-3-hydroxybutyric acid]
9.44	CC(O)C(NC(=O)C(N)CCC(=O)O)C(=O)O (stereo unspecified) [Glu-Thr]
6.94	C=CC1=C(C(=O)O)N2C(=O)C(NC(=O)C(=NO)c3csc(N)n3)C2SC1 (stereo unspecified) [Cefdinir]
8.07	CC(=O)NC(Cc1cnc[nH]1)C(=O)O (stereo unspecified) [N-Acetylhistidine]
3.01	CC(=O)OCC(=O)NCCCOc1cccc(CN2CCCCC2)c1 [Roxane]
0.92	CSCCC(=O)C(=O)O [alpha-Keto-gamma-(methylthio)butyric acid]
1.37	CC(=O)n1ccnc1 [1-Acetylimidazole]
5.91	NC(=O)C(N)Cc1c[nH]c2ccccc12 (stereo unspecified) [Tryptophanamide]
9.38	CC(C)C(NC(=O)C(N)CCCCN)C(=O)O (stereo unspecified) [Lys-Val]
8.62	NCC(=O)N1CCCC1C(=O)O (stereo unspecified) [Gly-Pro]
8.07	NCC(=O)NC(Cc1ccc(O)cc1)C(=O)O (stereo unspecified) [Gly-Tyr]
2.52	Nc1ccccc1S(=O)(=O)O [Orthanilic acid]
8.41	CC(N)C(=O)NC(C)C(=O)O (stereo unspecified) [Ala-Ala]
1.48	Nc1c(O)cccc1C(=O)O [3-Hydroxyanthranilic acid]
1.06	CC(C)OC(=O)CCCC=CCC1C(O)CC(O)C1CCC(O)CCc1ccccc1 (stereo unspecified) [Latanoprost]
1.41	O=C(O)c1c[nH]c2ccccc12 [Indole-3-carboxylic acid]
1.08	O=C(O)Cc1ccccc1Nc1c(Cl)cccc1Cl [Diclofenac]
1.11	CCc1ccc(CCOc2ccc(CC3SC(=O)NC3=O)cc2)nc1 (stereo unspecified) [Pioglitazone]
2.81	CC(=O)NC(Cc1c[nH]c2ccccc12)C(=O)O (stereo unspecified) [N-Acetyltryptophan]
9.22	CN=C(N)NCCCC(N)C(=O)O (stereo unspecified) [Targinine]

LC retention time [min]	SMILES
5.28	CC(=O)NC(CS)C(=O)O (stereo unspecified) [N-Acetylcysteine]
5.11	CN(C)CCc1c[nH]c2ccc(Cn3cncn3)cc12 [Rizatriptan]
7.6	CC(C)CC(NC(=O)C(C)N)C(=O)O (stereo unspecified) [Ala-Leu]
7.79	C=CC1=C(C(=O)O)N2C(=O)C(NC(=O)C(=NOCC(=O)O)c3csc(N)n3)C2SC1 (stereo unspecified) [Cefixime]
4.88	CC(=O)CC(C)(C)O [4-Hydroxy-4-methyl-2-pentanone]
9.18	NCC(=O)NCC(=O)NCC(=O)O [Gly-Gly-Gly]
2.96	O=c1ccn(C2CC(O)C(CO)O2)c(=O)[nH]1 (stereo unspecified) [2-Deoxyuridine]
1.27	CCCCc1nc(Cl)c(CO)n1Cc1ccc(-c2ccccc2-c2nn[nH]n2)cc1 [Losartan]
1.24	OCc1c[nH]c2ccccc12 [Indole-3-carbinol]
2.3	CC(=O)N1CCCCCC1=O [N-Acetylcaprolactam]
1.9	O=C(OC1CC2CC3CC(C1)N2CC3=O)c1c[nH]c2ccccc12 (stereo unspecified) [Dolasetron]
2.12	CC1CCN(CCCC(=O)c2ccc(F)cc2)CC1 [Melperone]
1	COc1cc(CNC(=O)CCCCC=CC(C)C)ccc1O [Capsaicin]
1.02	CN1C(C(=O)Nc2ccccn2)=C(O)c2ccccc2S1(=O)=O [Piroxicam]
8.74	C=Cc1ccccc1 [Styrene]
2.42	COC1C(CO)OC(n2ccc(=O)[nH]c2=O)C1O (stereo unspecified) [3'-O-Methyluridine]
1.34	Nc1ccc(O)cc1 [4-Aminophenol]
1.5	O=C(CCc1ccc(O)cc1)c1c(O)cc(O)cc1O [Phloretin]
5	CC(C)CC(N)C(=O)NC(C)C(=O)O (stereo unspecified) [Leu-Ala]
1.58	CC(=O)Nc1ccc(CC(=O)O)cc1 [Actrarit]
5.36	Cc1ccc(NC(=O)c2ccc(CN3CCN(C)CC3)cc2)cc1Nc1nccc(-c2cccnc2)n1 [Imatinib]

From the RepoRT retention time repository
